Experimental findings from patent US20080262043A1, “Solid Crystalline Form of Pantoprazole Free Acid, Salts Derived Therefrom and Process for Their Preparation” (MEDICHEM, S.A., priority 2005, published 2008) are described below.

This data set can be described thus: Solid-state stability of the crystalline form upon drying under vacuum. As to conditions: drying under vacuum at approximately 40° C. for approximately 2 hours. Format: physicochemical.

For the compound `COc1ccnc(C[S+]([O-])c2nc3cc(OC(F)F)ccc3[nH]2)c1OC` (stereo not shown) [Form III pantoprazole free acid, 5-(difluoromethoxy)-2-[[(3,4-dimethoxy-2-pyridinyl)methyl]sulfinyl]-1H-benzimidazole], the “change in the crystalline structure upon drying” value is “no change in the crystalline structure”.
